Laboratory results as given in patent US8796268B2, “Heteroaryls and uses thereof” (Millennium Pharmaceuticals, Inc., priority 2010, dated 2014).

Legend:
Format in all cases: biochemical
Human PI3K beta = target: T1, Human PI3K beta (Homo sapiens, UniProt P42338); test: Human PI3K beta enzyme assay (HTRF); details: concentration not given, b1387 states 1.1 μM for PI3K α and β; for inhibition at 1.1 µM: read-out: p110 beta Percent Inhibition
T1 construct: His (N); host or cells: SF9 insect cells (baculovirus)
T1 sequence (P42338 whole entry): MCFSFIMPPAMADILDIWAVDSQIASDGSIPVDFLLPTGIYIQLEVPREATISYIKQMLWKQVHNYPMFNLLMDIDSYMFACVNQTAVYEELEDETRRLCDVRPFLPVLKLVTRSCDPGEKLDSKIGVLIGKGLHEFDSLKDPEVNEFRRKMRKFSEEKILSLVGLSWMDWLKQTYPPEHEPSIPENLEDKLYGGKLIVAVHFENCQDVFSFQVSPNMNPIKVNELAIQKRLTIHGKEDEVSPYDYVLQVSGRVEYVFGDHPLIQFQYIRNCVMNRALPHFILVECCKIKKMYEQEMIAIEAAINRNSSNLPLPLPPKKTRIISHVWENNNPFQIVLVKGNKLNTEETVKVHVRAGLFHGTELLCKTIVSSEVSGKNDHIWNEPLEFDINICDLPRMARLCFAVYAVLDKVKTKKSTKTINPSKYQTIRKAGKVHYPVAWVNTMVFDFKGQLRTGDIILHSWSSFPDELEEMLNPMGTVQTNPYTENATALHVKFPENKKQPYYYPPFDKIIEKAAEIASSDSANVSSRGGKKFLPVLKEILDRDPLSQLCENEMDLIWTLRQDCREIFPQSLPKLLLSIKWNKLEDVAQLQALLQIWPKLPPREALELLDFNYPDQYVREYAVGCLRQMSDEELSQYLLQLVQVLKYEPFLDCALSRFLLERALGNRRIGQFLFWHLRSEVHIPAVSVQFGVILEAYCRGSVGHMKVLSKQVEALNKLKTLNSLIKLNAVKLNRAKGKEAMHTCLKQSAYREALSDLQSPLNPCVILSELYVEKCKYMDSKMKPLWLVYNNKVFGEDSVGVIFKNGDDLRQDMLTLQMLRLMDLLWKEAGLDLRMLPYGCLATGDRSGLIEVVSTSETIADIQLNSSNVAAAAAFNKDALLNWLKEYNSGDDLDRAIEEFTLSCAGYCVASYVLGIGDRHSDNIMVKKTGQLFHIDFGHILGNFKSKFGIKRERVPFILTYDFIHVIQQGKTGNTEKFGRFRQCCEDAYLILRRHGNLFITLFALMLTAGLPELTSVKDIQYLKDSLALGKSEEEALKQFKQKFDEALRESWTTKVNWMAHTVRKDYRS
T1 sequence (P27986 whole entry partner): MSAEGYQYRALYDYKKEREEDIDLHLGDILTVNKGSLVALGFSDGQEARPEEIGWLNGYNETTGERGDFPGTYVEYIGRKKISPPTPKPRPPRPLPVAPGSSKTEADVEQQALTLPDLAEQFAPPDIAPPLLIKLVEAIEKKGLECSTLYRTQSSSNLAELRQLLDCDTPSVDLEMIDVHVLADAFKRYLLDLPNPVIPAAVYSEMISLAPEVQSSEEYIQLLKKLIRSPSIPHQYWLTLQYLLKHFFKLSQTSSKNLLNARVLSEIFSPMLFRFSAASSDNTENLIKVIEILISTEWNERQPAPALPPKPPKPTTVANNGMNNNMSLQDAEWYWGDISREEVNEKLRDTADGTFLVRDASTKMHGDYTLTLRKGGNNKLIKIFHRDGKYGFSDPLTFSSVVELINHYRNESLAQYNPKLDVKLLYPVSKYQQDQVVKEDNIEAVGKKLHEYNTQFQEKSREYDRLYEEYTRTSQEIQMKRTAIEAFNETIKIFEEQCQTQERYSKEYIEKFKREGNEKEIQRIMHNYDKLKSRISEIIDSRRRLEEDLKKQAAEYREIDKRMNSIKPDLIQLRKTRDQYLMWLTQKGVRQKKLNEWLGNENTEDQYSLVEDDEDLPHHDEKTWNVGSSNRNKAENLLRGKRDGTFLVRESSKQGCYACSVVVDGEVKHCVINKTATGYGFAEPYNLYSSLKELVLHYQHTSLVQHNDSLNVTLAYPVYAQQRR
Summary of the method: (§1)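 Compounds were mixed with 25 uM ATP, then with 3.5 uM di-C8 PI(4,5)P2 and His-tagged PI3K isoform (β 5.25 nM, δ 0.75 nM, γ 5 nM) at pH 7.00. After 30 min at room temperature, EDTA stopped the reaction and PIP3 was measured by HTRF over 1 h.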

Human PI3K alpha = target: T2, Human PI3K alpha (Homo sapiens, UniProt P42336); test: Human PI3K alpha enzyme assay (HTRF); details: concentration not given, b1387 states 1.1 μM for PI3K α and β; for inhibition at 1.1 µM: read-out: p110 alpha Percent Inhibition
T2 construct: His (N); host or cells: SF9 insect cells (baculovirus)
T2 sequence (P42336 whole entry): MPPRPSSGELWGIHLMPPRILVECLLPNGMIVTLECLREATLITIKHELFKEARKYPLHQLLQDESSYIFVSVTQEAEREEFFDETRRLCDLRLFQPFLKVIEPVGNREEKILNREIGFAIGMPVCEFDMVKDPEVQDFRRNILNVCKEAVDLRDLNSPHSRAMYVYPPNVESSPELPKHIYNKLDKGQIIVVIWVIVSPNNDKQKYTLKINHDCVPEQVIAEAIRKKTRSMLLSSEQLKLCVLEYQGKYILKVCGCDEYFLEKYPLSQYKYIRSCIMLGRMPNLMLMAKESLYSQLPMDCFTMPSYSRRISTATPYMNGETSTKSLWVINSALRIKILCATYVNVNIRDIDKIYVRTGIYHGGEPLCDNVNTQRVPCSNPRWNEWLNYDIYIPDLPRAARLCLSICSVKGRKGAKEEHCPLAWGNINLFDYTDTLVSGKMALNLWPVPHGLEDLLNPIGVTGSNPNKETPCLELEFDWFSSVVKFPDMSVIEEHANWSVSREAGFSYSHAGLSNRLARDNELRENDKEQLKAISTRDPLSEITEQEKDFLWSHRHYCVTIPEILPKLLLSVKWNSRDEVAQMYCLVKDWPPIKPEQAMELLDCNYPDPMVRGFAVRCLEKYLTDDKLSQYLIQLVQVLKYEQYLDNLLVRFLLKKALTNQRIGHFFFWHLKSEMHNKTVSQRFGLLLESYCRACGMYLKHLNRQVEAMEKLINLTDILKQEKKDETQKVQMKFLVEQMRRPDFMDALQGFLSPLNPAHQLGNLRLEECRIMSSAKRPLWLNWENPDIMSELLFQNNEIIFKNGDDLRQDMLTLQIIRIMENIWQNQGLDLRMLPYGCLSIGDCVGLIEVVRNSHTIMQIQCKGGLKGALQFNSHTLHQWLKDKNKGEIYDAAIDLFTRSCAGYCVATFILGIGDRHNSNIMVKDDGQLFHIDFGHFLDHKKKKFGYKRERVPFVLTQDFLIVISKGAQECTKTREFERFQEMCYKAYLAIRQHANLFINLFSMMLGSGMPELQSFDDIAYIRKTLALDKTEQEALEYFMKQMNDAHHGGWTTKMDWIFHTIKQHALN
T2 sequence (P27986 whole entry partner): as the sequence (P27986 whole entry partner) above

Human PI3K delta = target: T3, Human PI3K delta (Homo sapiens, UniProt O00329); test: Human PI3K delta enzyme assay (HTRF); details: concentration not given, b1389 states 1.0 μM for PI3K δ and γ; for inhibition at 1 µM: read-out: p110 delta Percent Inhibition
T3 construct: His (N); host or cells: SF9 insect cells (baculovirus)
T3 sequence (O00329 whole entry): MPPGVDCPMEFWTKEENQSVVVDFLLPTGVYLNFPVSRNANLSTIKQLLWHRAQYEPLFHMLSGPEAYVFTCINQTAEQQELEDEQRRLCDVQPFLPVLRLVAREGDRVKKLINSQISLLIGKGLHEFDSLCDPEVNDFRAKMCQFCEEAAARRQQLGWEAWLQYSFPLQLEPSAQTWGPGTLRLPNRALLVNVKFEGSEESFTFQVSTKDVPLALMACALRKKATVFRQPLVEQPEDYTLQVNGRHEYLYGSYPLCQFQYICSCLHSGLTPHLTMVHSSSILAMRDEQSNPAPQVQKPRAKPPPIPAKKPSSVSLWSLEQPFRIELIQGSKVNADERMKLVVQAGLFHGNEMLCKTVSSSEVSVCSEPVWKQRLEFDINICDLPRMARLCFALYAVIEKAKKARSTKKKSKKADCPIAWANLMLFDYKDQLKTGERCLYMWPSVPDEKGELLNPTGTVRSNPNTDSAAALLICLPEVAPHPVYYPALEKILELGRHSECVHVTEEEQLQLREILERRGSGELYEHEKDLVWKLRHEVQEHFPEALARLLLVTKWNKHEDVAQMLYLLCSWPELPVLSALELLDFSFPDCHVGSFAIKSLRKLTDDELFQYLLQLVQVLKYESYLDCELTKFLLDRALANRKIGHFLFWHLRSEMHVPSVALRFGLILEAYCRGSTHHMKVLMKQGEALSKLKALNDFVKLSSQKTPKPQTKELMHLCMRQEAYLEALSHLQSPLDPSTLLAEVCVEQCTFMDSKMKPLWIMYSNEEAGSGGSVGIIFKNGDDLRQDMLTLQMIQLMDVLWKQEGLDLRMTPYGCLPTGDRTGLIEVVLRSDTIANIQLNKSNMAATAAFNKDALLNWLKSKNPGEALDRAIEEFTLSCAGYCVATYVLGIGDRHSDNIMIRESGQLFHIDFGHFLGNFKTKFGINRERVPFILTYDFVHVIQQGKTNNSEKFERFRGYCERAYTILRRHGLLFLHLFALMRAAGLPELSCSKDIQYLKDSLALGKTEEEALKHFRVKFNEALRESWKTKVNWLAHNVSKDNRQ
T3 sequence (P27986 whole entry partner): as the sequence (P27986 whole entry partner) above
Summary of the method: as §1

Human PI3K gamma = target: T4, Human PI3K gamma (Homo sapiens, UniProt P48736); test: Human PI3K gamma enzyme assay (HTRF); details: concentration not given, b1389 states 1.0 μM for PI3K δ and γ; for inhibition at 1 µM: read-out: p110 gamma Percent Inhibition
T4 construct: His (N); host or cells: SF9 insect cells (baculovirus)
T4 sequence (P48736 whole entry): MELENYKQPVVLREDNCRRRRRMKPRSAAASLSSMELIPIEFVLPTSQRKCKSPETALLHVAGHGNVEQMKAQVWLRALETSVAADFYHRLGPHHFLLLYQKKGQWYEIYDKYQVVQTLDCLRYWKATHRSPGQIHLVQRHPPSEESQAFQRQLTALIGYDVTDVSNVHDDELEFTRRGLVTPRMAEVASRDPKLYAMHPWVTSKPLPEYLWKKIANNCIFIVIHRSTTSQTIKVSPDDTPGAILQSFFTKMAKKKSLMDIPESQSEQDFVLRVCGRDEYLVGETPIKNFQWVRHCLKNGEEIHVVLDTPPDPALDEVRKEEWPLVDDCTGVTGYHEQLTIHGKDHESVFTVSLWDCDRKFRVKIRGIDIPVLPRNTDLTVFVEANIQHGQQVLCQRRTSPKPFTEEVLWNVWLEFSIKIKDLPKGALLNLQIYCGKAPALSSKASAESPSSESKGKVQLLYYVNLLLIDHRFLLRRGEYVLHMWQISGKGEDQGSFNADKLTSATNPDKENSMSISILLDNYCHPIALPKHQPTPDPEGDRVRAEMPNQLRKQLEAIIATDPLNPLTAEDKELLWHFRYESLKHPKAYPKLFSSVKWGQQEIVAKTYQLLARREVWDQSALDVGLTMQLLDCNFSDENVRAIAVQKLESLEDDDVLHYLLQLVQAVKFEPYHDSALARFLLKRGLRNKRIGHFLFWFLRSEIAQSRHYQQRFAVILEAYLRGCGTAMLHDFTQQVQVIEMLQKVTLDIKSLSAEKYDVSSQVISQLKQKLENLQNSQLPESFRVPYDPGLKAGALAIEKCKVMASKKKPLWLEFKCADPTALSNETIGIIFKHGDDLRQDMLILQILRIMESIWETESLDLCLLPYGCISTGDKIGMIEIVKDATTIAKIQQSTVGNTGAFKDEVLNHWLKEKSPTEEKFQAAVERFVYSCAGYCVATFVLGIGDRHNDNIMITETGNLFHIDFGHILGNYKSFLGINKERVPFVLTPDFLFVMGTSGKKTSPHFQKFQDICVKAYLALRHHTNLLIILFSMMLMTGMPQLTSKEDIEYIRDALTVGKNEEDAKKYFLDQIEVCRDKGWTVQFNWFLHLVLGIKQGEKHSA
Summary of the method: as §1

SMILES	inhibition at 1.1 µM (Human PI3K beta) [%]	inhibition at 1.1 µM (Human PI3K alpha) [%]	inhibition at 1 µM (Human PI3K delta) [%]	inhibition at 1 µM (Human PI3K gamma) [%]	p110 beta Percent Inhibition (Human PI3K beta) [%]	p110 delta Percent Inhibition (Human PI3K delta) [%]	p110 alpha Percent Inhibition (Human PI3K alpha) [%]	p110 gamma Percent Inhibition (Human PI3K gamma) [%]
O=C(O)c1sc(N2CCOCC2)nc1Cc1cc2ccccc2cc1F [Compound 314]	109	42	104	42	–	–	–	–
N#Cc1c(N2CCOCC2)sc(C(=O)O)c1Cc1ccc2cc(F)ccc2c1 [Compound 315]	110	97	114	75	–	–	–	–
N#Cc1c(N2CCOCC2)sc(-c2nnn[nH]2)c1Cc1ccc2ccccc2c1 [Compound 316, 2-(morpholin-4-yl)-4-(2-naphthylmethyl)-5-(1H-tetrazol-5-yl)thiophene-3-carbonitrile]	106	78	111	62	–	–	–	–
CS(=O)(=O)NC(c1ccc(Cl)cc1)c1c(C(=O)O)sc(N2CCOCC2)c1C#N (stereo not shown) [Compound 317]	77	20	70	29	–	–	–	–
NC(=O)c1ccc2ccc(Cc3nc(N4CCOCC4)sc3C(=O)O)cc2c1 [Compound 318]	96	18	76	14	–	–	–	–
O=C(O)c1sc(N2CCOCC2)nc1Cc1ccc2ccccc2c1F [Compound 319]	105	59	113	50	–	–	–	–
O=C(O)c1sc(N2CCOCC2)c(F)c1Cc1ccc(Cl)c(Cl)c1 [Compound 320, 3-(3,4-dichlorobenzyl)-4-fluoro-5-morpholinothiophene-2-carboxylic acid]	94	16	97	35	–	–	–	–
CC(c1ccc(Cl)c(Cl)c1)c1c(C(=O)O)sc(N2CCOCC2)c1C#N (stereo not shown) [Compound 321]	–	67	–	59	73	86	–	–
N#Cc1c(N2CCOCC2)sc(C(=O)O)c1C(CCF)c1ccc2ccccc2c1 (stereo not shown) [Compound 322]	104	–	–	–	–	67	64	28
CC(C)(C)[S+]([O-])NC(c1ccc2ccccc2c1)c1c(C(=O)O)sc(N2CCOCC2)c1C#N (stereo not shown) [Compound 323]	61	66	97	46	–	–	–	–
N#Cc1ccc2ccc(Cc3nc(N4CCOCC4)sc3C(=O)O)cc2c1 [Compound 325]	89	17	89	22	–	–	–	–
CC(c1ccc2cc(F)ccc2c1)c1c(C(=O)O)sc(N2CCOCC2)c1C#N (stereo not shown) [Compound 326]	108	–	96	56	–	–	79	–
N#Cc1c(N2CCOCC2)sc(C(N)=O)c1Cc1ccc2ccccc2c1 [Compound 327, 4-cyano-5-(morpholin-4-yl)-3-(2-naphthylmethyl)thiophene-2-carboxamide]	109	34	109	22	–	–	–	–
O=C(O)c1sc(N2CCOCC2)nc1Cc1ccc2cc[nH]c2c1 [Compound 328]	98	11	83	48	–	–	–	–
CC(c1ccc2ccccc2c1)c1c(C(=O)O)sc(N2CCOCC2)c1C#N (stereo not shown) [Compound 333]	95	63	74	55	–	–	–	–

Further lines, results first:

inhibition at 1.1 µM (Human PI3K beta) [%]	inhibition at 1.1 µM (Human PI3K alpha) [%]	inhibition at 1 µM (Human PI3K delta) [%]	inhibition at 1 µM (Human PI3K gamma) [%]	p110 beta Percent Inhibition (Human PI3K beta) [%]	p110 delta Percent Inhibition (Human PI3K delta) [%]	p110 alpha Percent Inhibition (Human PI3K alpha) [%]	p110 gamma Percent Inhibition (Human PI3K gamma) [%]	SMILES
112	39	80	29	–	–	–	–	NS(=O)(=O)c1sc(N2CCOCC2)nc1Cc1ccc2ccccc2c1 [Compound 329, 2-morpholino-4-(naphthalen-2-ylmethyl)thiazole-5-sulfonamide]
109	85	106	61	–	–	–	–	Cn1c(Cc2c(C(=O)O)sc(N3CCOCC3)c2C#N)cc2ccccc21 [Compound 330]
105	37	107	51	–	–	–	–	CN(C)CCC(c1ccc(Cl)c(Cl)c1)c1c(C(=O)O)sc(N2CCOCC2)c1C#N (stereo not shown) [Compound 331, 4-cyano-3-[1-(3,4-dichlorophenyl)-3-(dimethylamino)propyl]-5-(morpholin-4-yl)thiophene-2-carboxylic acid]
77	11	91	27	–	–	–	–	CC(c1ccc(Cl)c(Cl)c1)c1nc(N2CCOCC2)sc1C(=O)O (stereo not shown) [Compound 332]
103	21	101	12	–	–	–	–	NC(=O)c1sc(N2CCOCC2)nc1Cc1ccc2ccccc2c1 [Compound 334]
111	54	107	31	–	–	–	–	COc1ccc2ccc(Cc3nc(N4CCOCC4)sc3C(=O)O)cc2c1 [Compound 335]
–	–	–	–	90	49	16	10	CN(C)C(c1ccc(Cl)c(Cl)c1)c1c(C(=O)O)sc(N2CCOCC2)c1C#N (stereo not shown) [Compound 336]
110	67	109	73	–	–	–	–	O=C(O)c1sc(N2CCOCC2)nc1Cc1cc(F)c2ccccc2c1 [Compound 338]
113	48	104	59	–	–	–	–	O=C(O)c1sc(N2CCOCC2)nc1Cc1ccc2c(F)cccc2c1 [Compound 340]
110	30	98	30	–	–	–	–	O=C(O)c1sc(N2CCOCC2)nc1Cc1cc2ccccc2o1 [Compound 341]
80	34	97	12	–	–	–	–	CC(C)(C)[S+]([O-])NC(c1ccc(Cl)c(Cl)c1)c1c(C(=O)O)sc(N2CCOCC2)c1C#N (stereo not shown) [Compound 342]
103	24	102	59	–	–	–	–	O=C(O)c1sc(N2CCOCC2)nc1Cc1ccc2ccncc2c1 [Compound 344]
98	21	98	23	–	–	–	–	CC(c1ccc2ccccc2c1)c1nc(N2CCOCC2)sc1C(=O)O (stereo not shown) [Compound 346]
102	71	111	60	–	–	–	–	N#Cc1c(N2CCOCC2)sc(C(=O)O)c1C(CCO)c1ccc(Cl)c(Cl)c1 (stereo not shown) [Compound 347, 4-cyano-3-[1-(3,4-dichlorophenyl)-3-hydroxypropyl]-5-(morpholin-4-yl)thiophene-2-carboxylic acid]
63	4	56	4	–	–	–	–	O=C(O)Cc1sc(N2CCOCC2)nc1Cc1ccc(Cl)c(Cl)c1 [Compound 348, 2-(4-(3,4-dichlorobenzyl)-2-morpholinothiazol-5-yl)acetic acid]
58	6	41	3	–	–	–	–	Clc1ccc(Cc2nc(N3CCOCC3)sc2Cc2nnn[nH]2)cc1Cl [Compound 350, 4-(5-((1H-tetrazol-5-yl)methyl)-4-(3,4-dichlorobenzyl)thiazol-2-yl)morpholine]
82	15	79	46	–	–	–	–	CN(C)C(c1ccc(Cl)cc1)c1c(C(=O)O)sc(N2CCOCC2)c1C#N (stereo not shown) [Compound 351]
85	18	84	14	–	–	–	–	CS(=O)(=O)NC(=O)c1sc(N2CCOCC2)c(C#N)c1Cc1ccc(Cl)c(Cl)c1 [Compound 352, 4-cyano-3-(3,4-dichlorobenzyl)-N-(methylsulfonyl)-5-morpholinothiophene-2-carboxamide]
87	19	80	15	–	–	–	–	CC(=O)NC(c1ccc(Cl)cc1)c1c(C(=O)O)sc(N2CCOCC2)c1C#N (stereo not shown) [Compound 353]
111	89	99	40	–	–	–	–	COC(=O)NC(c1ccc2ccccc2c1)c1c(C(=O)O)sc(N2CCOCC2)c1C#N (stereo not shown) [Compound 354]
100	44	105	53	–	–	–	–	C=CCC(c1ccc(Cl)c(Cl)c1)c1c(C(=O)O)sc(N2CCOCC2)c1C#N (stereo not shown) [Compound 355, 4-cyano-3-[1-(3,4-dichlorophenyl)but-3-en-1-yl]-5-(morpholin-4-yl)thiophene-2-carboxylic acid]
95	11	72	23	–	–	–	–	c1ccc2cc(Cc3cc(N4CCOCC4)sc3-c3nnn[nH]3)ccc2c1 [Compound 356]
